Values joined by “and” are separate entries in the source; they are usually repeats but may differ in a detail not shown here. Identical values can stand only once. Counter-ions that a name gives are not always drawn. Like-named read-outs stand apart in the source and are kept apart here.

Consider 4 compounds from patent US5196453A, “Crystalline deoxyspergualin, process for its preparation and suppository containing the same” (priority 1989, dated 1993).

Data set [1] is described as follows: Heat stability: undecomposed substance by HPLC after storage at 50° C. for 6 days. Format: physicochemical. Here is the method: To evaluate the heat stability of α-form crystals of deoxyspergualin hydrochloride in comparison with that of the powder, samples were stored at 50° C. for 6 days and were analyzed by high-pressure liquid chromatography (HPLC), and the amount of undecomposed substance was measured.
To evaluate the heat stability of β-form crystals of deoxyspergualin hydrochloride in comparison with that of the powder, samples were stored at 50° C. for 6 days, and analyzed by HPLC to measure the amount of undecomposed substance.
To evaluate the heat stability of the Powder A in comparison with those of α-form crystals and β-form crystals of the above-identified application, samples were stored at 50° C. for 6 days and then analyzed by HPLC to measure the amount of undecomposed substance.

Data set [2] in a line: Hygroscopicity: change in weight after storage at different RH (%) for 24 hrs. Particulars: for Deliquescence (in words): RH of 64%. The class given is physicochemical. Here is the method:
To evaluate the hygroscopicity of the powder and α-form crystals of deoxyspergualin hydrochloride, the change of the weight of each sample was measured after storage in different RH (%) for 24 hrs. To evaluate the hygroscopicity of the powder and β-form crystals of deoxyspergualin hydrochloride, the change in the weight of each sample was measured after storage in different RH (%) for 24 hrs. The hygroscopicity each of the Powder A and α-form crystals and β-form crystals of the above-identified application was evaluated by measuring the change in weight after storage in various RH(%) for 24 hrs.

Regarding `Cl.Cl.Cl.N=C(N)NCCCCCCC(=O)NC(O)C(=O)NCCCCNCCCN` (centres unmarked) [Powder A, N-[4-(3-aminopropyl)aminobutyl]-2-(7-guanidinoheptanamido)-2-hydroxyethanamide trihydrochloride, reference compound], in data set [1], the “Amount of undecomposed substance” value amounted to 59.7%. Besides, the Increase in weight in data set [2] (RH 31%) was 5.0%; in data set [2] (RH 43%), 6.3%; in data set [2] (RH 52%), 7.4%; in data set [2] (RH 64%), 13.2%.

As for `N=C(N)NCCCCCCC(=O)NC(O)C(=O)NCCCCNCCCN` (centres unmarked) [Powder, N-[4-(3-aminopropyl)aminobutyl]-2-(7-guanidinoheptanamide)-2-hydroxyethanamide trihydrochloride, reference compound], in data set [1] (trihydrochloride, 8640 min), the “Amount of undecomposed substance” value was 89.8% and 83%. In addition, the Increase in weight is given as 1.5% in data set [2] (RH 14%); 5.9% in data set [2] (RH 31%, trihydrochloride); 9.1% in data set [2] (RH 43%, trihydrochloride); 12.6% in data set [2] (RH 52%, trihydrochloride); 17.9% in data set [2] (RH 64%, trihydrochloride); 28.3% in data set [2] (RH 76%, trihydrochloride). Further, the “Deliquescence (in words)” value in data set [2] (trihydrochloride) was “deliquesced”.

For the compound `N=C(N)NCCCCCCC(=O)NC(O)C(=O)NCCCCNCCCN` (stereo not drawn) [α-form crystals, N-[4-(3-aminopropyl)aminobutyl]-2-(7-guanidinoheptanamide)-2-hydroxyethanamide trihydrochloride], in data set [1] (trihydrochloride, 8640 min), the “Amount of undecomposed substance” value was 100.1% and 100.0%. Besides, the Increase in weight was -0.6% and -0.8% in data set [2] (RH 31%, trihydrochloride); -0.4% in data set [2] (RH 43%, trihydrochloride); -0.1% and -0.2% in data set [2] (RH 52%, trihydrochloride); 15.2% and 17.8% in data set [2] (RH 64%, trihydrochloride). Besides, the “Water absorption (in words)” value in data set [2] (RH of 52% or below) is reported as “did not absorb water”.

Regarding `N=C(N)NCCCCCCC(=O)NC(O)C(=O)NCCCCNCCCN` (stereo not drawn) [β-form crystals, N-[4-(3-aminopropyl)aminobutyl]-2-(7-guanidinoheptanamide)-2-hydroxyethanamide trihydrochloride], the “Amount of undecomposed substance” value in data set [1] (trihydrochloride, 8640 min) was 100.6% and 100.2%. The Increase in weight in data set [2] (RH 31%, trihydrochloride) was 1.7% and 1.2%; in data set [2] (RH 43%, trihydrochloride), 2.6% and 2.1%; in data set [2] (RH 52%, trihydrochloride) it was 3.8% and 3.0%; in data set [2] (RH 64%, trihydrochloride), 7.3% and 6.1%; in data set [2] (RH 76%, trihydrochloride) it was 14.0%. Also, the “Deliquescence (in words)” value in data set [2] (trihydrochloride) was “did not deliquesce”.
